Data: patent publication US6087373A, “Thrombin inhibitors” (Merck & Co., Inc., priority 1998, dated 2000)
Where a SMILES comes first, the peptide text is derived from it. [ ]: non-standard residue; d: D form. The star is where a group is joined. pNA = O=[N+]([O-])c1ccc(N*)cc1; Sar = CNCC(=O)O

Test system: human trypsin
Assay: Substrate hydrolysis by human trypsin (Km)
Assay type: biochemical
Conditions: p-nitroanilide substrate, 405 nm, 25° C., pH 7.4, 1 mM CaCl2
Procedure: (§1) Assays of human a-thrombin and human trypsin were performed at 25° C. in 0.05 M TRIS buffer pH 7.4, 0.15 M NaCl, 0.1% PEG. Trypsin assays also contained 1 mM CaCl2.

| SMILES | Km [µM] |
| --- | --- |
| CNCC(=O)N1CCC[C@H]1C(=O)N[C@@H](CCCNC(=N)N)C(=O)Nc1ccc([N+](=O)[O-])cc1 [sar-PR-pna, sarcosine-Pro-Arg-p-nitroanilide] (H-[Sar]-Pro-Arg-pNA) | 59 |

Molecular target: T1, human a-thrombin (Homo sapiens, UniProt P00734)
T1 construct: human a-thrombin
Assay: In vitro assay for determining proteinase inhibition (human a-thrombin, hydrolysis of p-nitroanilide or fluorogenic substrate)
Assay type: biochemical
Conditions: 25° C., 0.05 M TRIS buffer pH 7.4, 0.15 M NaCl, 0.1% PEG
Procedure: In vitro assay for determining proteinase inhibition
as §1
Concentrations of stock solutions of Z-GPR-afc were determined from measurements of absorbance at 380 nm of the 7-amino-4-trifluoromethylcoumarin produced upon complete hydrolysis of an aliquot of the stock solution by thrombin.
Activity assays were performed by diluting a stock solution of substrate at least tenfold to a final concentration ≤0.5 Km into a solution containing enzyme or enzyme equilibrated with inhibitor. Times required to achieve equilibration between enzyme and inhibitor were determined in control experiments. Initial velocities of product formation in the absence (Vo) or presence of inhibitor (Vi) were measured. Assuming competitive inhibition, and that unity is negligible compared Km /[S], […] (where [S], [I], and e respectively represent the total concentrations, of substrate, inhibitor and enzyme), the equilibrium constant (Ki) for dissociation of the inhibitor from the enzyme can be obtained from the dependence of Vo /Vi on [I] shown in equation 1.

| Ki [nM] | SMILES |
| --- | --- |
| 350 | Cc1nc(N)ccc1CNC(=O)Cn1c(C)cc2c(c1=O)NC(=O)CC2 |
| 1.1 | Cc1nc(N)ccc1CNC(=O)Cn1c(C)cc2c(c1=O)NC(=O)C(Cc1cccc(F)c1)C2 (stereo not drawn) |
| 1.5 | Cc1nc(N)ccc1CNC(=O)Cn1c(C)cc2c(c1=O)NC(=O)C(Cc1cc(F)cc(F)c1)C2 (stereo not drawn) |
| 0.64 | Cc1nc(N)ccc1CNC(=O)Cn1c(C)cc2c(c1=O)NC(=O)C(Cc1cc(F)ccc1F)C2 (stereo not drawn) |
| 0.52 | CC[C@H](C)CC1Cc2cc(C)n(CC(=O)NCc3ccc(N)nc3C)c(=O)c2NC1=O (stereo partly drawn) |
